Converted amounts (≈) assume the structure as drawn. Where two headings read alike, the source gives them in different places.
What was measured:
[1] = Kinetic solubility determination in PBS pH 7.4; type: physicochemical; settings: phosphate buffered saline, aqueous buffer, kinetic from dmso stock, PBS pH 7.4, 300 µM nominal, 2 hours at 25°C
Description: (§1) Section S5: In vitro and in vivo studies
(§2) These studies were performed by Contract Research Organisation (CRO) Pharmaron. The methodology provided within the ESI is published within the express permission of this organisation.
(§3) The percentage of a compound recovered during the analysis process should be 100 %; any deviation from this value indicates experimental limitations such as unintended potential non-specific binding events to experimental equipment, solubility issues, etc.
(§4) In vitro Absorption, Distribution and Metabolism studies methods: […]
(§5) The ionisation
(§6) Kinetic Solubility Determination in PBS pH 7.4:
The stock solutions of test and control compounds were prepared in DMSO at 10 mM. From this a 300 µM solution was prepared in duplicate in 100 mM Phosphate Buffered Saline (PBS, pH 7.4 ± 0.1). These solutions were then shaken at 1100rpm for 2 hours at 25°C. Following incubation, the samples were filtered using a vacuum manifold. The filtrate was analysed and quantified against a standard of known concentration using liquid chromatography mass -spectrometry (LC -MS/MS). […]
coupled to a Sciex 4500 mass spectrometer (AB Inc., Illinois) Separation of compounds was achieved using an XSelect HSS T3 column (2.5µm, 50 x 2.1 mm) (Waters Ltd., Wilmslow) at a temperature of 40°C and a binary mobile phase gradient at a flow rate of 0.8 mL/min. […]

[2] = Metabolic stability in liver microsomes; type: in vitro ADME, mouse
Description: as §1, §2, §3, §4, §5, §6
(§7) The stock solutions of test and control compounds were prepared in DMSO at 10 mM. From this a 300 µM solution was prepared in duplicate in 100 mM Phosphate Buffered Saline (PBS, pH 7.4 ± 0.1). These solutions were then shaken at 1100rpm for 2 hours at 25°C. […]
(§8) Metabolic Stability in Rat, Mouse and Human Liver Microsomes :
(§9) The metabolic stability of compounds at a concentration of 1 µM, in rat, mouse and human liver microsomes (BD Gentest, Franklin Lakes NJ) was measured following incubation with hepatic microsomes (0.5 mg of protein / mL) in the presence and absence of cofa ctor (NADPH) at 37 °C.
(§10) Aliquots of each incubation were removed at 0.5, 5, 15, 30 and 60 minutes. The reaction was stopped by the addition of cold acetonitrile containing analytical internal standard (IS). […]

[3] = Metabolic stability in liver microsomes; type: in vitro ADME, rat
Description: as §1, §2, §3, §4, §5, §6, §7, §8, §9, §10

[4] = Metabolic stability in liver microsomes; type: in vitro ADME, human
Description: as §1, §2, §3, §4, §5, §6, §7, §8, §9, §10

[5] = In vivo pharmacokinetic study, intravenous; parameters: species or system female CD-1 mice; settings: IV 1 mg/kg
Description: In vitro Absorption, Distribution and Metabolism results […]
In vivo Pharmacokinetic study methods
SSA 5 was dosed at 1 mg/kg to female CD -1 mice (n=3) via an intravenous tail vein bolus administration, dose formulation was a solution in 2% DMSO/98% Water. Blood was sampled from the dorsal metatarsal vein at each time point (n=8) and added to tubes containing anticoagulant K2-EDTA. Blood samples were extracted by protein precipitation. Blood concentrations were calculated through UPLC-MS/MS techniques, with internal standard. The lower limit of quantitation was 6.4 nM. PK parameters were calculated using Phoenix WinNonlin version 8.3.

[6] = mouse, whole blood, blood, female CD-1 mice

## O=C(O)CNc1c(Nc2ccc(C(F)(F)F)cc2)c(=O)c1=O [SSA 5]
[1]
  solubility at 2 h: 273 µM (≈ 85.8 µg/mL)
[2]; liver microsomes, mouse microsomes, 1 µM, read-out: In vitro T1/2
  half-life at 1 µM: > 185 min
[2]; mouse
  Hepatic Extraction Ratio (ER): < 0.26
[3]; liver microsomes, rat microsomes, 1 µM, read-out: In vitro T1/2
  half-life at 1 µM: > 185 min
[3]; rat
  Hepatic Extraction Ratio (ER): < 0.21
[4]; human
  Hepatic Extraction Ratio (ER): < 0.27
[4]; liver microsomes, human microsomes, 1 µM, read-out: In vitro T1/2
  half-life at 1 µM: > 185 min
[5]; female CD-1 mice
  Cl Blood as % LBF: > 100 % LBF
[5]; female, CD-1, mouse, whole blood, 2 hours following dosing, read-out: blood level at last detected time
  concentration at 2 h: 8.1 nM
[5]; mouse, whole blood, female CD-1 mice, read-out: Cl Blood
  clearance: 162 ± 28 mL/min/kg
[5]; mouse, whole blood, female CD-1 mice, read-out: Vss
  Vd: 3.1 ± 1.7 L/kg
[5]; mouse, whole blood, blood, DMSO:H2O 2:98, female CD-1 mice
  Cmax: 1200 ± 208 nM
[5]; [6]
  AUC(0-inf): 0.335 ± 0.06 µM·h
  AUC(0-t): 0.327 ± 0.057 µM·h
  Tmax: 4.98 min
[5]; mouse, whole blood, terminal half-life, female CD-1 mice
  half-life: 43.8 ± 36.6 min

Source: article PMC12169104, “Towards the development of supramolecular self-associating amphiphiles as antibiofilm agents against Pseudomonas aeruginosa and Candida albicans biofilms” (Journal of Materials Chemistry. B, 2025)
